Values of other authors, collected in US9067940B2, “Alicyclic derivatives of N,N'-substituted 3,7-diazabicyclo[3.3.1]nonanes and medicaments based thereon” (priority 2011, dated 2015).

Key:
[1] = test system: AMPA receptors; details: adult rats, 0.3-3 mg/kg
[2] = test system: AMPA receptors; details: only at high concentrations
[3] = test system: NMDA-mediated signals
[4] = test system: AMPA receptors
[5] = behavioral models
[6] = mice suffering from diabetes

## O=C(c1ccc2c(c1)OCCO2)N1CCCCC1 [CX546]
[1]
  social memory: improves social memory

## COc1ccc(C(=O)N2CCCC2=O)cc1 [aniracetam]
[2]
  concentration at which the clinical effect is manifested: 0.1 mM
[3]
  effect on NMDA-mediated signals: no effect
[4]
  effect on synaptic signal at several hippocampus sites: enhances the synaptic signal

## COc1ccc(C(=O)NCCCC(=O)O)cc1 [anisoyl-GABA]
[4]; metabolite of aniracetam
  aniracetam-like effects: no aniracetam-like effects

B1: BDNF: brain-derived neurotrophic factor, a neural tissue growth factor (protein, UniProt P23560 19-247, looked up)
Neurotrophic factor BDNF …: APMKEANIRGQGGLAYPGVRTHGTLESVNGPKAGSRGLTSLADTFEHVIEELLDEDQKVRPNEENNKDADLYTSRVMLSSQVPLEPPLLFLLEEYKNYLDAANMSMRVRRHSDPARRGELSVCDSISEWVTAADKKTAVDMSGGTVTVLEKVPVSKGQLKQYFYETKCNPMGYTKEGCRGIDKRHWNSQCRTTQSYVRALTMDSKKRIGWRFIRIDTSCVCTLTIKRGR
[5]
  antidepressant effect: antidepressant effect
[6]
  blood glucose concentration: reduce the blood glucose concentration
